The results in this text go back to the NIST ThermoML archive (doi:10.1016/j.fluid.2007.08.001).

The conditions of the data set: Liquid; for mass density: 303.15 K, 95.3 kPa, Pycnometric method.

Broadly, the mass density is mass per unit of volume. Usually vapor or sublimation pressure stands for the pressure of vapour in equilibrium with the condensed phase.

± gives the expanded uncertainty stated by the source.

Consider `Brc1ccccc1` [bromobenzene], for which the mass density amounted to 1481.48 ± 1.7 kg/m3. Also, the “vapor or sublimation pressure” value (426.85 K) was determined as 95.3 ± 1.9 kPa.

As for `Clc1ccccc1` [chlorobenzene], the mass density was determined as 1095.52 ± 1.1 kg/m3. The “vapor or sublimation pressure” value (402.35 K) amounted to 95.3 ± 1.9 kPa.

Regarding `C[S+](C)[O-]` [dimethyl sulfoxide], the mass density turned out to be 1092.4 ± 1.1 kg/m3. In addition, under “460.95 K”, the “vapor or sublimation pressure” value is 95.3 ± 1.9 kPa.

For `CCc1ccccc1` [ethylbenzene], the mass density worked out at 858.2 ± 0.86 kg/m3. Besides, where the note is “406.95 K”, the “vapor or sublimation pressure” value is on record as 95.3 ± 1.9 kPa.

As for `O=[N+]([O-])c1ccccc1` [nitrobenzene], the mass density came to 1193.4 ± 1.3 kg/m3. In addition, where the note is “483.05 K”, the “vapor or sublimation pressure” value is given as 95.3 ± 1.9 kPa.

In the case of `Cc1ccccc1` [toluene], the mass density was 857.66 ± 0.86 kg/m3. Moreover, the “vapor or sublimation pressure” value (381.65 K) came out at 95.3 ± 1.9 kPa.
